Measurements from publication PMC9084593 (Cell reports, 2022).

How the values were obtained:
GlmU = GlmU (Streptococcus pneumoniae, UniProt Q04KU2); assay: DTNB colorimetric acetyltransferase assay, […] nm; assay type: biochemical; conditions: 0.4 mM GlcN-1-P, 1 mM acetyl CoA, 5 mM MgCl2, pH 7.5, 37°C
GlmM = molecular target: T1, GlmM (Streptococcus pneumoniae, UniProt Q04JI8); assay: GlmU-coupled DTNB colorimetric mutase assay, […] nm; assay type: biochemical; conditions: 0.4 mM GlcN-6-P, 2 mM acetyl CoA, 5 mM MgCl2, pH 7.5, 37°C
T1 sequence (Q04JI8 1-450): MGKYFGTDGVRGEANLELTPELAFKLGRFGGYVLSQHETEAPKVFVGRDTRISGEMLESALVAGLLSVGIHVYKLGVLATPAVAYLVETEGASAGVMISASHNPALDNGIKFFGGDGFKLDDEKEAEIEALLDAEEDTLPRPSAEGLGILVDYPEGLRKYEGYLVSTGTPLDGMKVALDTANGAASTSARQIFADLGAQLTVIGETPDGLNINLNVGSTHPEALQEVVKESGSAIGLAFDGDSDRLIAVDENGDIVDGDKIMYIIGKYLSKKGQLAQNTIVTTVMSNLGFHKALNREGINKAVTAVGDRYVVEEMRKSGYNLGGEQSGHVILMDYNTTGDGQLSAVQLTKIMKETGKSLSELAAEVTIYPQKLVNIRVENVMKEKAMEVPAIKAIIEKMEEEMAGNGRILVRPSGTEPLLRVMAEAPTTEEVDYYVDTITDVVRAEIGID

Sequence of GlmU (Q04KU2 whole entry): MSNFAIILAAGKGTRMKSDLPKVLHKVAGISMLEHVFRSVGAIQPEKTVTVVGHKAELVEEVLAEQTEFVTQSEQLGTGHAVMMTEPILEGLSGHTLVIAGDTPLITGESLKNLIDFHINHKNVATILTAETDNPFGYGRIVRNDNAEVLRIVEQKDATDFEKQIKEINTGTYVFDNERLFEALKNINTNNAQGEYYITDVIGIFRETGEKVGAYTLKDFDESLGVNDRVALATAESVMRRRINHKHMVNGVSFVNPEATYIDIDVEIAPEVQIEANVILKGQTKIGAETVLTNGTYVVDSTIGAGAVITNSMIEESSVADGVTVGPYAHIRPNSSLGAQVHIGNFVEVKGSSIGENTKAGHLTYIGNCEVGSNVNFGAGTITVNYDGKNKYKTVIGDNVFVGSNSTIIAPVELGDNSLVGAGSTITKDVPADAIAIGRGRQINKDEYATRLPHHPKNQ

N[C@H]1[C@@H](OP(=O)(O)O)O[C@H](CO)[C@@H](O)[C@@H]1O [GlcN-1-P]
DTNB colorimetric acetyltransferase assay, 412 nm (GlmU): The GlcN-1-P acetyltransferase activities of the GlmU and the GlmUE315AH330A variant were measured

N[C@H]1C(O)O[C@H](COP(=O)(O)O)[C@@H](O)[C@@H]1O (some centres unmarked) [GlcN-6-P]
GlmU-coupled DTNB colorimetric mutase assay, 412 nm (GlmM): The glucosamine-6-phosphate (GlcN-6-P) mutase activity of GlmM was assayed
